Laboratory results as given in the supplement of paper PMC10307832.

Experiments:
Assay in all cases: relative viability (nuclei count vs DMSO), 5 days (fraction); higher = more cells survive
[1] = compound: C#Cc1cccc(Nc2ncnc3cc(OC)c(OCCCCCCC(=O)NO)cc23)c1 [CUDC-101] + COc1cccc2cc(-c3nc([C@H]4CC[C@H](C(=O)O)CC4)n4ncnc(N)c34)[nH]c12 [OSI-027] (partner 0.5 µM)
Summary of the method: (§1)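 Relative viability divides the nuclei count in treated wells by that in vehicle wells. Lung cancer cell lines were seeded in 1536-well plates, dosed by pin tool the next day, and fixed and stained after 5 days in one step with final 0.05% Triton X-100, 1% formaldehyde and 1 ug/ml Hoechst. Dosing was a single drug or a fixed anchor-drug dose plus five library-drug doses (not always all listed) in √10 steps, and values are medians of duplicate plates imaged at 4×.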

[2] = compound: COc1cc2/c(=N/c3ccc(Br)cc3F)nc[nH]c2cc1OCC1CCN(C)CC1 [Vandetanib] + Nc1ncn([C@H]2C[C@H](O)[C@@H](CO)O2)c(=O)n1 [Decitabine] (partner 2 µM)
Summary of the method: as §1

[3] = compound: COc1cc(N2CCC(N3CCN(C)CC3)CC2)ccc1Nc1ncc(Cl)c(Nc2ccccc2S(=O)(=O)C(C)C)n1 [NVP-TAE684] + C[C@]1(O)C[C@@H](c2nc(-c3ccc4ccc(-c5ccccc5)nc4c3)c3c(N)nccn32)C1 [Linsitinib] (partner 1 µM)
Summary of the method: as §1

[4] = compound: C1=CC=C2C(=C1)N=C(S2)C(C#N)C3=NC(=NC=C3)NCCC4=CN=CC=C4 + Cc1nc(Nc2ncc(C(=O)Nc3c(C)cccc3Cl)s2)cc(N2CCN(CCO)CC2)n1 [Dasatinib] (partner 0.075 µM)
Summary of the method: as §1

Cell Line	relative viability ([1]; first compound 0.01 µM)	relative viability ([1]; first compound 0.03162 µM)	relative viability ([1]; first compound 0.1 µM)	relative viability ([1]; first compound 0.3162 µM)	relative viability ([1]; first compound 1 µM)	relative viability ([2]; first compound 0.02 µM)	relative viability ([2]; first compound 0.06325 µM)	relative viability ([2]; first compound 0.2 µM)	relative viability ([2]; first compound 0.6325 µM)	relative viability ([2]; first compound 2 µM)	relative viability ([3]; first compound 0.2 µM)	relative viability ([3]; first compound 2 µM)	relative viability ([4]; first compound 0.005 µM)	relative viability ([4]; first compound 0.01581 µM)	relative viability ([4]; first compound 0.05 µM)	relative viability ([4]; first compound 0.1581 µM)	relative viability ([4]; first compound 0.5 µM)	relative viability ([3]; first compound 0.6325 µM)
NCI-H596	0.655	0.715	0.783	0.805	0.751	0.986	0.98	0.983	0.979	0.978	1.06	0.688	0.559	0.559	0.534	0.526	0.619	–
NCI-H23	0.71	0.647	0.631	0.607	0.509	0.358	0.328	0.346	0.293	0.325	0.533	0.509	0.645	0.836	1.02	0.974	0.993	0.584
HCC-366	0.914	0.768	1.01	1.15	0.815	0.291	0.355	0.354	0.332	0.347	0.605	0.455	0.591	0.848	0.539	0.824	0.676	0.621
NCI-H2126	0.678	0.659	0.662	0.668	0.508	0.537	0.551	0.592	0.576	0.552	0.701	0.688	0.603	0.543	0.573	0.584	0.49	0.684
LU99A	0.297	0.305	0.302	0.289	0.239	0.804	0.828	0.676	0.834	0.771	0.614	0.445	0.532	0.662	0.52	0.855	0.767	0.558
NCI-H650	0.58	0.569	0.622	0.587	0.474	0.354	0.324	0.322	0.351	0.329	0.982	0.652	0.43	–	0.405	0.589	0.476	0.638
LXF-289	0.751	0.885	0.766	0.918	0.57	0.376	0.382	0.362	0.348	0.393	0.937	0.822	0.152	0.237	0.209	0.24	0.179	1.01
SK-MES-1	0.604	0.601	0.673	0.656	0.381	0.419	0.38	0.411	0.276	0.252	0.985	0.837	0.303	0.403	0.394	0.327	0.371	1.05
SW 1573	0.578	0.623	0.726	0.766	0.279	0.467	0.481	0.594	0.508	0.393	0.907	0.795	0.587	0.44	–	0.494	0.324	0.692
